Laboratory results reported in ChEMBL document CHEMBL5316368, “Di- and Triterpenoids from the Rhizomes of Isodon amethystoides and Their Anti-inflammatory Activities” (J Nat Prod, 2023).
Active and inactive are the calls of the source. No cut-off for these calls is given here.

Key:
RAW264.7 [1] = test: Cytotoxicity against mouse RAW264.7 cells assessed as cell viability by MTT assay; type: functional, cell-based
RAW264.7 [2] = test: Antiinflammatory activity against LPS-stimulated mouse RAW264.7 cells assessed as inhibition of NO production preincubated with compound for 2 hrs followed by LPS stimulation and measured after 24 hrs by Griess reagent based analysis; type: functional, cell-based; conditions: dose 10-40 µM, time 26.0 hrs
NCI-H1975 = test: Anticancer activity against human NCI-H1975 cells assessed as inhibition of cell growth incubated for 48 hrs by MTT assay; type: functional, cell-based; conditions: NCI-H1975, 48 h
MCF7 = test: Anticancer activity against human MCF7 cells assessed as inhibition of cell growth incubated for 48 hrs by MTT assay; type: functional, cell-based; conditions: MCF7, 48 h
MDA-MB-231 = test: Anticancer activity against human MDA-MB-231 cells assessed as inhibition of cell growth incubated for 48 hrs by MTT assay; type: functional, cell-based; conditions: MDA-MB-231, 48 h
A549 = test: Anticancer activity against human A549 cells assessed as inhibition of cell growth incubated for 48 hrs by MTT assay; type: functional, cell-based; conditions: A549, 48 h
RAW264.7 [3] = test: Antiinflammatory activity against LPS-stimulated mouse RAW264.7 cells assessed as suppression of NO secretion at 20 uM preincubated with compound for 2 hrs followed by LPS stimulation and measured after 24 hrs by Griess reagent based assay relative to control; type: functional; conditions: time 26 hrs
RAW264.7 [4] = test: Antiinflammatory activity against LPS-stimulated mouse RAW264.7 cells assessed as downregulation of LPS-induced iNOS expression preincubated with compound for 2 hrs followed by LPS stimulation and measured after 24 hrs by Western blot analysis; type: functional, cell-based; conditions: dose 10-40 µM, time 26.0 hrs

C=C1[C@@H]2CC[C@H]3[C@]4(C)CC[C@@H](O)C(C)(C)[C@H]4C[C@H](OC(C)=O)[C@]3(C2)[C@@H]1O
Activity (RAW264.7 [1]): inactive

CC(C)c1c(O)ccc2c1CC[C@H]1[C@@](C)(C(=O)O)CCC[C@]21C
inhibition (RAW264.7 [2]): Dose-Dependent Effect
Activity (RAW264.7 [1]): inactive

C=C1C(=O)O[C@H]2C3=CC[C@@H]4C(C)(C)C(=O)CC[C@@]4(C)[C@@H]3CC[C@@H]12
IC50 (NCI-H1975): > 10 µM
IC50 (MCF7): > 10 µM
Activity (RAW264.7 [1]): inactive
IC50 (MDA-MB-231): 7.3 µM
IC50 (A549): > 10 µM

CC(=O)[C@@H](C)CC[C@@]1(C(=O)O)C=C2C=CC3[C@@]4(C)C(C(=O)O)=CC(C)(C)[C@@H]4CC[C@@]3(C)[C@]2(C)CC1 (stereo partly specified)
Activity (RAW264.7 [1]): inactive

CC(C)c1cc2c(cc1O)[C@@]1(C)CC[C@H](O)[C@](C)(C=O)[C@@H]1CC2
Activity (RAW264.7 [3]): 95%
Activity (RAW264.7 [1]): inactive

C=C1CC[C@@H]2[C@](C)(CO)CCC[C@@]2(C)C1CCC1=CCOC1=O (stereo partly specified)
Activity (RAW264.7 [1]): inactive

C=C1[C@@H]2CC[C@H]3[C@]4(C)CC[C@@H](O)C(C)(C)[C@H]4C[C@@H](O)[C@]3(C2)[C@@H]1O
Activity (RAW264.7 [1]): inactive

CC(C)C(=O)OC1=C[C@@]2(CO)C(CC[C@]3(C)C2CC=C2C4[C@](C(=O)O)(CC[C@@H](C)[C@@]4(C)O)CC[C@]23C)C(C)(C)C1 (stereo partly specified)
Activity (RAW264.7 [1]): inactive

COc1cc(/C=C/C(=O)O[C@H]2[C@H](O)C[C@]3(C)C4CC=C5C6CC(C)(C)CC[C@]6(C(=O)O)CC[C@@]5(C)[C@]4(C)CC[C@H]3C2(C)C)ccc1O (stereo partly specified)
Activity (RAW264.7 [1]): inactive

CC(=O)O[C@H]1C(=O)[C@@]2(C)[C@H]([C@H](OC(=O)c3ccccc3)[C@]3(O)C[C@H](OC(=O)[C@H](O)[C@@H](NC(=O)c4ccccc4)c4ccccc4)C(C)=C1C3(C)C)[C@]1(OC(C)=O)CO[C@@H]1C[C@@H]2O [PACLITAXEL]
IC50 (NCI-H1975): 0.028 µM
IC50 (MDA-MB-231): 0.03 µM
IC50 (A549): 0.018 µM

CC(C)c1c(O)ccc2c1CC[C@H]1C(C)(C)[C@@H](O)CC[C@]21C
Activity (RAW264.7 [1]): inactive

C=C1C(=O)[C@]23C[C@H]1CC[C@H]2[C@]1(C)CC[C@@H](O)C(C)(C)[C@H]1C[C@@H]3OC(C)=O
IC50 (NCI-H1975): 6.3 µM
IC50 (MCF7): 7.4 µM
Activity (RAW264.7 [1]): inactive
IC50 (MDA-MB-231): 6.6 µM
IC50 (A549): 4.7 µM

CC1(C)CC[C@]2(C(=O)O)CC[C@]3(C)C(=CC[C@@H]4[C@@]5(C)C[C@@H](O)[C@H](O)C(C)(C)[C@@H]5CC[C@]43C)[C@@H]2C1
Activity (RAW264.7 [1]): inactive

CC(C)c1c(O)ccc2c1CC[C@H]1C(C)(C)C(=O)CC[C@]21C
inhibition (RAW264.7 [2]): Dose-Dependent Effect
Activity (RAW264.7 [1]): inactive

CC(C)c1cc2c(cc1O)[C@@]1(C)CCCC(C)(C)[C@@H]1CC2=O
Activity (RAW264.7 [1]): inactive

CC(C)c1cc2c(cc1O)[C@@]1(C)CCC[C@](C)(CO)[C@@H]1CC2
inhibition (RAW264.7 [2]): Dose-Dependent Effect

CC1(C)CC[C@]2(C(=O)O)CC[C@]3(C)C(=CCC4[C@@]5(C)C[C@@H](O)[C@H](OC(=O)/C=C/c6ccc(O)cc6)C(C)(C)[C@@H]5CC[C@]43C)C2C1 (stereo partly specified)
Activity (RAW264.7 [1]): inactive

COc1cc2c(cc1C(C)C)CC[C@H]1[C@@](C)(C(=O)O)CCC[C@]21C
Activity (RAW264.7 [1]): inactive

C[C@@H]1CC[C@]2(C(=O)O)CC[C@]3(C)C(=CCC4[C@@]5(C)C[C@@H](O)OCC(C)(C)C5CC[C@]43C)C2[C@]1(C)O (stereo partly specified)
Activity (RAW264.7 [1]): inactive

CC(C)c1cc2c(cc1O)C(=O)C[C@H]1C(C)(C)CCC[C@]21C
Activity (RAW264.7 [3]): 86%
inhibition (RAW264.7 [2]): Dose-Dependent Effect
Activity (RAW264.7 [1]): inactive
Activity (RAW264.7 [4]): Dose-Dependent Effect

CC1(C)CC[C@]2(C(=O)O)CC[C@]3(C)C(=C2C1)CCC1[C@@]2(C)C[C@@H](O)[C@H](O)C(C)(C)[C@@H]2CC[C@]13C (stereo partly specified)
Activity (RAW264.7 [1]): inactive

CC(C)c1cc2c(cc1O)CC[C@H]1[C@](C)(CO)CCC[C@]21C
inhibition (RAW264.7 [2]): Dose-Dependent Effect
Activity (RAW264.7 [1]): inactive
Activity (RAW264.7 [4]): Dose-Dependent Effect

C=C1C(=O)[C@@]23CC[C@@H]4C(C)(C)C(=O)CC[C@@]4(C)[C@@H]2CC[C@@H]1C3
IC50 (NCI-H1975): > 10 µM
IC50 (MCF7): > 10 µM
Activity (RAW264.7 [1]): inactive
IC50 (MDA-MB-231): 8.4 µM
IC50 (A549): > 10 µM

C=C1CC[C@@H]2C(C)(C)[C@H](O)CC[C@@]2(C)C1CCC1=CCOC1=O (stereo partly specified)
Activity (RAW264.7 [1]): inactive

CC(C)c1cc2c(cc1O)[C@@]1(C)CC[C@H](O)C(C)(C)[C@@H]1CC2
Activity (RAW264.7 [1]): inactive

CC(C)[C@H]1CC[C@H]2[C@@H](CC[C@H]3C(C)(C)CCC[C@]23C)C1
inhibition (RAW264.7 [2]): Active

CC(C)c1ccc2c(c1O)CC[C@@H]1[C@@](C)(CO)CCC[C@@]21C
Activity (RAW264.7 [3]): 94%
inhibition (RAW264.7 [2]): Dose-Dependent Effect
Activity (RAW264.7 [1]): inactive
Activity (RAW264.7 [4]): Dose-Dependent Effect

CC(C)[C@@]1(O)CCC2=C(C1)C(=O)C[C@H]1C(C)(C)CC[C@H](O)[C@]21C
inhibition (RAW264.7 [2]): Dose-Dependent Effect
Activity (RAW264.7 [1]): inactive

CC1(C)CC[C@]2(C(=O)O)CC[C@]3(C)C(=CCC4[C@@]5(C)C[C@@H](O)[C@@H](O)C(C)(C)[C@@H]5CC[C@]43C)C2C1 (stereo partly specified)
Activity (RAW264.7 [1]): inactive

CC(C)c1cc2c(cc1O)C(=O)C[C@H]1[C@@](C)(CO)CCC[C@]21C
inhibition (RAW264.7 [2]): Dose-Dependent Effect
Activity (RAW264.7 [1]): inactive

CC(C)c1cc2c(cc1O)[C@@]1(C)CCC[C@](C)(CO)[C@@H]1C=C2
Activity (RAW264.7 [1]): inactive

C[C@@H]1CC[C@]2(C(=O)O)CC[C@]3(C)C(=CC[C@@H]4[C@@]5(C)C(CO)=CC(C)(C)[C@@H]5CC[C@]43C)[C@@H]2[C@]1(C)O [HYPTASIENIC ACID]
IC50 (NCI-H1975): > 10 µM
IC50 (MCF7): > 10 µM
Activity (RAW264.7 [1]): inactive
IC50 (MDA-MB-231): > 10 µM
IC50 (A549): 7.4 µM

CC(C)c1cc2c(cc1O)CC[C@H]1C(C)(C)[C@@H](O)CC[C@]21C
Activity (RAW264.7 [3]): 91%
inhibition (RAW264.7 [2]): Dose-Dependent Effect
Activity (RAW264.7 [1]): inactive
Activity (RAW264.7 [4]): Dose-Dependent Effect

C=C1[C@@H]2CC[C@H]3[C@]4(C)CCC[C@](C)(CO)[C@H]4C[C@H](O)[C@]3(C2)[C@@H]1O
Activity (RAW264.7 [1]): inactive

C=C1CC[C@@H]2[C@](C)(C(=O)O)CCC[C@@]2(C)C1CCC1=CCOC1=O (stereo partly specified)
Activity (RAW264.7 [1]): inactive

C[C@@H]1CC[C@]2(C(=O)O)CC[C@]3(C)C(=CCC4[C@@]5(C)C[C@@H](O)[C@H](OC(=O)/C=C/c6ccc(O)cc6)C(C)(C)[C@@H]5CC[C@]43C)C2[C@H]1C (stereo partly specified)
Activity (RAW264.7 [1]): inactive

CC1(C)CC[C@]2(C(=O)O)CC[C@]3(C)C(=C2C1)C=CC1[C@@]2(C)C[C@@H](O)[C@H](O)C(C)(C)[C@@H]2CC[C@]13C (stereo partly specified)
Activity (RAW264.7 [1]): inactive
